Reference: article PMC7957705 (Molecules, 2021)
Read-outs that look alike come from different tables or passages of the source. Values belong to the molecule of their own block, whether it stands above or below them. Where a SMILES comes first, the peptide text is derived from it. Bridges are numbered along the chain shown (N, C = ends). Triazole bridges read from a SMILES are 1,4-linked. [ ]: non-standard residue; d: D form. The star is where a group is joined. Benzoyl(4-guanidino) = N=C(N)Nc1ccc(C(=O)*)cc1; Aha = [N-]=[N+]=NCC[C@H](N)C(=O)O; β3hV = CC(C)[C@H](N)CC(=O)O; Pra = C#CC[C@H](N)C(=O)O

How the values were obtained:
[1] = system: treated animals; details: cited from earlier work
[2] = target: T1, human MCH-R1 (Homo sapiens, UniProt Q99705); experiment: MCH-induced cytosolic Ca2+ ion mobilization, antagonist effect; type: cell-based; details: for Ki: antagonism of MCH-induced cytosolic Ca2+ mobilization, read-out: Ki (functionality, antagonism at MCH-R1)
T1 construct: expressed in transfected cells
T1 sequence (Q99705 whole entry): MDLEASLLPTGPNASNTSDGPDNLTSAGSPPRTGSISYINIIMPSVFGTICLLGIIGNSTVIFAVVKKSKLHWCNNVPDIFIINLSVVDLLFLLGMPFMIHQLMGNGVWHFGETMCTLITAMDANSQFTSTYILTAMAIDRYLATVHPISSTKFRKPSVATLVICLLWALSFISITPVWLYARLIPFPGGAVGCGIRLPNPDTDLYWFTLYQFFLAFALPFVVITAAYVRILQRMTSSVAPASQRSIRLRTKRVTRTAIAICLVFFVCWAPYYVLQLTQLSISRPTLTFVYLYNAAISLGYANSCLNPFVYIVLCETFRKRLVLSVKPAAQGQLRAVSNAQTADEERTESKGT
Procedure: The functional assay was run onto cells expressing the hMCH-R1 receptor, as described in Wang et al.. In brief, the cells are suspended in DMEM buffer (Invitrogen), then distributed in microplates at a density of 4.104 cells/well. The fluorescent probe (Fluo4 Direct, Invitrogen) mixed with probenecid in Hanks’ Balanced Salt solution (HBSS) (Invitrogen) complemented with 20 mM HEPES (Invitrogen) (pH 7.4) is then added into each well and equilibrated with the cells for 60 min at 37 °C, then 15 min at 22 °C. Then, the assay plates are positioned in a microplate reader (CellLux, PerkinElmer) which is used for the addition of the test compound, reference agonist or HBSS buffer (basal control), and the measurements of changes in fluorescence intensity, which varies proportionally to the free cytosolic Ca^2+ ion concentration. For stimulated control measurements, MCH at 300 nM is added in separate assay wells. The results are expressed as a percentage of the control response to 300 nM MCH. The standard reference agonist is MCH, which is tested in each experiment at several concentrations to generate a concentration-response curve from which its EC50 value is calculated. For the antagonist effect, the results are expressed as a percentage inhibition of the control response to 30 nM MCH, which was added to all tested wells and controls 5 min after the candidate products.

[3] = target: T1, human MCH-R1; experiment: Binding displacement of [125I]-[Phe13,Tyr19]-MCH at membranes expressing human MCH-R1
Procedure: Stable cell lines were obligatory for all receptor programs. We cloned the human receptor and established the cell line as previously described. In brief, HEK293 (HEK) cells were grown in Dulbecco’s Modified Eagle medium (DMEM) supplemented with 10% fetal calf serum, 2 mM glutamine, 100 IU/mL penicillin and […] streptomycin. They were seeded at 5 × 10^6 cells in T75 cm^2 culture flasks. One day later, they were transfected with […] of the pcDNA3.1 (Invitrogen, Groningen, The Netherlands) containing the human MCH-R1 using lipofectamine (Life Technologies, Cergy Pontoise, France), as previously described. One day later, cells were trypsinized, resuspended in a complete DMEM medium containing […] of geneticin and seeded at different dilutions in 96-well plates which were kept for 2 to 3 weeks in a humidified CO2 incubator. At the end of the selection period, isolated clones were picked up, amplified, and further characterized by cyclic AMP experiments. For each cell line, one positive clone was subcloned before being used for all of the cyclic AMP, [^35S]-GTPγS and receptor binding experiments necessary to characterize them. The stable HEK293 cell line expressing the human MCH-R1 was HEK-hMCH-R1.
Membrane preparations were classically made as previously described. In brief, the HEK-hMCH-R cell line was grown to confluency, harvested in PBS buffer containing 2 mM EDTA and centrifuged at 10,000× g for 5 min (4°C). The resulting pellet was suspended in 20 mM Hepes buffer (pH 7.5), containing 5 mM EGTA and homogenized using a Kinematica polytron. The homogenate was then centrifuged (95,000× g, 30 min, 4 °C) and the resulting pellet was suspended in 50 mM HEPES buffer (pH 7.5), containing 10 mM MgCl2 and 2 mM EGTA. Aliquots of membrane preparations were stored at −80 °C until use. Binding has been described in numerous publications and the test was based on Mac Donald et al.’s description. […] Nonspecific binding is determined in the presence of 0.1 μM MCH. […] The filters are dried and then counted for radioactivity in a scintillation counter (Topcount, Packard) using a scintillation cocktail (Microscint 0, Packard). The results are expressed as percentage inhibition of the control radioligand specific binding. The standard reference compound is MCH, which was tested in each experiment at 8 concentrations to obtain a competition curve from which its IC50 is calculated. The high level of assay robustness and reproducibility of each control monitored over several decades (internal data base, Eurofins) and included in every assay ensure results’ reliability even when performed only twice. […]

[4] = type: in vitro ADME; details: for half-life: plasma
Procedure: Plasmas from 3 species (including commercially available human healthy donors) were adjusted to pH 7.4 if necessary. Incubations were performed at a concentration of 1 µM of the compound at 37 °C (in the presence of a final concentration of DMSO of 2.5% v/v. The incubations were stopped at 0, 15, 30, 60 and 120 min by methanol. Each time point was run in sextuplets. The sampling plates were then centrifuged (2500 rpm, 45 min, 4 °C) and the supernatants pooled. Samples were analyzed for parent compound by LC-MS/MS. The percentage of parent compound remaining at each time point relative to the 0 min sample is then calculated from LC-MS/MS peak area ratios. Then, the stability in plasma was evaluated by incubating human, rat or mouse plasma with the compound(s) as follows: the product (0.1 µM in TRIS buffer pH 7.4 0.1% BSA) was incubated with the plasma at 37 °C. The disappearance of the product was measured at 15, 45, 120, 240 and 300 min by mass spectrometry. Incubations were carried out in a robot Star (Hamilton France, Villebon-sur-Yvette, France). At each sampling time, 50 µL of the reaction medium was removed and diluted with 100 µL of acetonitrile. After centrifugation (20 min at + 4 °C, 4000 rpm), 75 µL of the supernatants was transferred into a 384 well injection plate. Ten microliters were injected onto UPLC coupled with a XEVO TQS mass spectrometer system (Waters, Milford, MA, USA). The unchanged product is quantified using a reference sample (0.1 µM) prepared during the incubation process. A second reference sample at 0.01 µM is prepared in the same conditions to verify the linearity of the detection method. The peak height (or area) is measured to calculate the half-life of the compound.

[5] = Stability and metabolite identification on mouse hepatocytes; type: in vitro ADME; details: 20 µM, 5 h
Procedure: (§1) The stability of the compound was studied on hepatocyte cultures from Wistar rats and CD1 mice. The compound was incubated at 20 µM in the presence of 1.106 cells/mL for 5 h. The incubation was then stopped with acetonitrile (v/v) and the supernatant, after a brief centrifugation (2500 rpm, 5 min 4 °C) was submitted to LC-MS analysis, using a THERMO […] coupled to a Waters Acquity UPLC System equipped with a Waters Acquity UPLC C18 100 × 2.1 mm 1.7 µm column.

[6] = Stability and metabolite identification on rat hepatocytes; type: in vitro ADME; details: 20 µM, 5 h
Procedure: as §1

[7] = target: T1, human MCH-R1; set-up: method as in PMID 19619599, PMID 23267345; details: cited from earlier work
[8] = human plasma; details: 37 °C, up to 300 min
[9] = rat plasma; details: 37 °C, up to 300 min

Molecule: CN(C)c1nc(NC2CCC(NCCc3ccc(Br)cc3OC(F)(F)F)CC2)nc2ccccc12 (centres unmarked) [ATC0065]
- behavioral concerns [1]: some behavioral concerns have been reported

- Ki [2]: 30 nM
- affinity at the MCH-R1 receptor (in words) [3]: poor binders
Molecule: CSCC[C@H](NC(=O)[C@H](C)NC(=O)c1ccc(NC(=N)N)cc1)C(=O)N[C@@H](CC(C)C)C(=O)N[C@@H](CCCNC(=N)N)C(=O)N[C@H](C(=O)N[C@@H](CCCNC(=N)N)C(=O)N1CCC[C@H]1C(=O)N[C@@H](C)C(=O)N[C@@H](Cc1c[nH]c2ccccc12)C(=O)O)C(C)C [GPS13670] ({Benzoyl(4-guanidino)}-AMLRVRPAW-OH)

- stability in plasma (in words) ([4]; human): most stable compound
- half-life ([4]; human): ≥ 300 min
- initial dose remaining after incubation in mice plasma ([4]; mouse): ~20%
- stability in plasma (in words) ([4]; mouse): most stable compound
- half-life ([4]; mouse): 173 ± 9 min
- stability in plasma (in words) ([4]; rat): most stable compound
- half-life ([4]; rat): ≥ 300 min
- antagonistic functionality (in words) [2]: high picomolar range
- Ki [2]: 0.028 nM
- stability on hepatocytes [5]: mild stability
- affinity at the MCH-R1 receptor (in words) [3]: superior affinity
- stability on hepatocytes [6]: mild stability
Molecule: CSCC[C@@H]1NC(=O)[C@@H](NC(=O)c2ccc(NC(=N)N)cc2)CCn2cc(nn2)C[C@@H](C(=O)N[C@@H](Cc2c[nH]c3ccccc23)C(=O)O)NC(=O)[C@@H]2CCCN2C(=O)[C@H](CCCNC(=N)N)NC(=O)C[C@H](C(C)C)NC(=O)[C@H](CCCNC(=N)N)NC(=O)[C@H](CC(C)C)NC1=O [GPS15290, pGua-[N3-hAla-MLR-βhVal-RP-hPra]-W-OH] ({Benzoyl(4-guanidino)}-[Aha]MLR[β3hV]RP[Pra]W-OH; triazole 1-8)

Molecule: COc1cc(-n2cnc3cc(-c4ccc(Cl)cc4)sc3c2=O)ccc1OCCN1CCCC1 [GW803430]
- behavioral concerns ([1]; in vivo): some behavioral concerns have been reported

- half-life ([4]; human, pH 7.4): 14 ± 1 min
- half-life ([4]; mouse, pH 7.4): 23 ± 1.8 min
- half-life ([4]; rat, pH 7.4): 60 ± 3 min
- Ki [2]: 5 nM
Molecule: CSCC[C@@H]1NC(=O)[C@@H](NC(=O)c2ccc(NC(=N)N)cc2)CSSC[C@@H](C(=O)N[C@@H](Cc2c[nH]c3ccccc23)C(=O)O)NC(=O)[C@@H]2CCCN2C(=O)[C@H](CCCNC(=N)N)NC(=O)[C@H](Cc2ccc(O)cc2)NC(=O)[C@H](C(C)C)NC(=O)[C@H](CCCNC(=N)N)NC(=O)[C@H](CC(C)C)NC1=O [S38151, p-guanidinobenzoyl-Des-Gly(10)-MCH(7-17), reference compound] ({Benzoyl(4-guanidino)}-CMLRVYRPCW-OH; disulfide 1-9; N-terminus and C-terminus assumed)
- affinity at the human MCH-R1 receptor [7]: low nanomolar range

Molecule: COCC1=C(C(=O)OC)[C@H](c2ccc(F)c(F)c2)N(C(=O)NCCCN2CCC(c3cccc(NC(C)=O)c3)CC2)C(=O)N1 [SNAP-7941]
- behavioral concerns [1]: some behavioral concerns have been reported

Molecule: Gua-N3-hAla-Nle-Leu-Arg-βhVal-Arg-Pro-hPra-Trp
- not cleaved [8]: not metabolized at all, 100% of the initial dose found at 300 (5 h)
- not cleaved [9]: not metabolized at all, 100% of the initial dose found at 300 (5 h)

Molecule: pGua-[N3-hAla-MLR-βhVal-RP-hPra]-W-OH
- not cleaved [8]: not metabolized at all, 100% of the initial dose found at 300 (5 h)
- not cleaved [9]: not metabolized at all, 100% of the initial dose found at 300 (5 h)
